Where a name gives a salt, the structure may show the parent alone.
Tests used:
[1] = Solubility in aqueous media / water; type: physicochemical
[2] = Hygroscopic tendency; type: physicochemical

Row | Compound | solubility in aqueous media ([1]; aqueous media) | hygroscopic tendency [2] | water solubility ([1]; water, background statement)
1 | Cc1cn(-c2cc(NC(=O)c3ccc(C)c(Nc4nccc(-c5cccnc5)n4)c3)cc(C(F)(F)F)c2)cn1 [nilotinib hydrochloride monohydrate, 4-Methyl-N-[3-(4-methyl-1H-imidazol-1-yl) -5-(trifluromethyl)phenyl]-3-[(4-pyridine-3-ylpyrimidin-2-yl)amino]benzamide hydrochloride hydrate] | low solubility | slight hygroscopic tendency | –
2 | Cc1cn(-c2cc(NC(=O)c3ccc(C)c(Nc4nccc(-c5cccnc5)n4)c3)cc(C(F)(F)F)c2)cn1 [Nilotinib, 4-Methyl-3-[[4-(3-pyridinyl)-2-pyrimidinyl]amino]-N-[5-(4-methyl-1H-imidazol-1-yl) -3-(trifluoromethyl)phenyl] benzamide] | – | – | poorly water soluble

Reference: patent publication US8293756B2, “Pharmaceutical compositions comprising nilotinib hydrochloride monohydrate” (Novartis AG, priority 2006, dated 2012)
